The target in the assay is Protein kinase C beta type Isoform 2 (Homo sapiens, UniProt P05771). Description: Protein Kinase C beta 2 (PKCpII) Assay. As for the experimental part: Protein Kinase C beta 2 (PKCpII) catalyzes the production of ADP from ATP that accompanies the phosphoryl transfer to the PKC Pseudosubstrate peptide (A→S, RFARKGSLRQKNV). This transfer is coupled to the oxidation of β-NADH through the activities of Pyruvate Kinase (PK) and Lactate Dehydrogenase (LDH). β-NADH conversion to NAD+ is monitored by the decrease in absorbance at 340 nm (e=6.22 cm−1 mM−1) using a Molecular Devices SPECTRA max PLUS spectrophotometer.A typical assay was carried out on a 96-well, clear microtiter plate in a Molecular Devices spectrophotometer for 20 minutes at 30° C. in 0.1 mL of assay buffer containing 50 mM HEPES, pH 7.4, 5 nM PKC, 23 units of pyruvate kinase, 33 units of lactate dehydrogenase, 0.15 mM peptide, 0.1 mM ATP, 1 mM DTT, 4 mM PEP, 8 mM MgCl2, 0.3 mM NADH, […]), 10 mg/mL PS, 50 ng/mL PMA, 7.5% DMSO and from about 10,000 nM to 0.169 nM compound inhibitor. Stock solutions of 3-sn-phosphatidyl-L-serine (PS) and phorbol-12-myristate-13-acetate (PMA) were sonicated for 30 seconds just prior to addition to assay buffer and assays were initiated by the addition of 100 μM ATP.
Sequence of Protein kinase C beta type Isoform 2 (P05771 as listed by the source): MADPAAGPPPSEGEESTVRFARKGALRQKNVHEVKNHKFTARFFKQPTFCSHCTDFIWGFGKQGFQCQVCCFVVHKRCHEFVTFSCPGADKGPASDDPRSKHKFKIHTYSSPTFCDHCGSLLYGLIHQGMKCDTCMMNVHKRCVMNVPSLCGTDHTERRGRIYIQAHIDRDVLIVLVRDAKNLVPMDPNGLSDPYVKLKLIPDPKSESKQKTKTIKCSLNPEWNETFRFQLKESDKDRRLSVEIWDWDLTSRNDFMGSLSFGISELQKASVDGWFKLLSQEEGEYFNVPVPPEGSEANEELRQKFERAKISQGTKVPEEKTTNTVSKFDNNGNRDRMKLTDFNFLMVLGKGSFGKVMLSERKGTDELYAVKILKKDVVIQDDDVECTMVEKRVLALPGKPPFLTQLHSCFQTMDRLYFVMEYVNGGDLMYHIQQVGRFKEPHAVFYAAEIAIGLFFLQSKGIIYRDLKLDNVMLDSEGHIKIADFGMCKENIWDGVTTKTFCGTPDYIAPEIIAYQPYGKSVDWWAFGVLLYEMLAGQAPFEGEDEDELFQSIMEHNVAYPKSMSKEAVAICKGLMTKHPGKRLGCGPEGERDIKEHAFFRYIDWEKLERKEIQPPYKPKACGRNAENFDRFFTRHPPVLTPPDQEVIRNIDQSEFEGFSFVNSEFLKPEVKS

Consider `Cc1ncc(F)c(Nc2n[nH]c3c2CN(C(=O)N2C[C@@H](C)N(C)C[C@@H]2C)C3(C)C)n1` [US11220518, Ex. No. H2], for which the affinity corresponds to a Ki of 2.63 nM.

(Values after BindingDB's records for patent US117808 (Pfizer, 2023).)
